Measurements published in patent publication US4883796A, “Oxime ethers of 2,6-dioxabicyclo(3.3.0)octanones, and compositions and methods for treatment of a cardiac disease or circulatory with them” (Heinrich Mack Nachf., priority 1987, dated 1989).

How the values were obtained:
isolated aorta strips [1] = assay: inhibition of potassium chloride-induced contractions on isolated aorta strips, rabbit; type: cell-based; settings: read-out: ED50, inhibition of potassium chloride-induced contractions
Isoprenaline tachycardia = assay: Inhibition of Isoprenaline tachycardia in narcotised, despinalised rats; type: in vivo; settings: Rattus norvegicus, prophylactic
Text: Inhibition of Isoprenaline tachycardia in narcotised,
despinalised rats after prophylactic, intravenous or
intraduodenal application

[2] = test system: Lypressin-induced T-wave elevation in the ECG; assay: Influence on the Lypressin-induced T-wave elevation in the ECG of narcotised rats; type: in vivo; settings: for ED50: Rattus norvegicus, po, 0.25 h, perorally 15 minutes before Lypressin; for Length of action at ED50-Dose: perorally
Method: Influence on the T-wave elevation in the ECG of narcotised
rats, which was induced by intravenous bolus injection of
Lypressin. The substances were administered perorally 15
minutes and at various times before the Lypressin injection

[3] = Reduction of the arterial mean pressure in narcotised rabbits, i.d.; type: in vivo; settings: Oryctolagus cuniculus, intraduodenal, read-out: ED30 (mmHg), reduction of the arterial mean pressure
Method: Reduction of the arterial mean pressure in narcotised rabbits.
The substance was administered i.d.

[4] = orientating toxicity, mice, perorally; settings: mouse, in vivo, po, read-out: dose withstood without clinical symptoms and without fatalities
isolated aorta strips [5] = assay: inhibition of potassium chloride-induced contractions on isolated aorta strips, rat; type: cell-based; settings: read-out: ED50, inhibition of potassium chloride-induced contractions
[6] = Influence on systolic arterial pressure and heart rate of conscious normotensive beagle dogs, perorally; type: in vivo
Method: Influence on the systolic arterial pressure (SAP) and the heart rate
(HR) of concious normotensive beagle dogs. Substance was administered

[7] = Cardiovascular effects after intravenous administration to narcotised rats with opened thorax and artificial respiration; type: in vivo; settings: 1.0 mg/kg i.v.
Text: |Cardiovascular effects of the compound of example 3 after intravenous |administration to narcotised rats (Pentobarbital) with opened thorax and |artificial respiration.

[8] = Cardiovascular effects after i.d. administration to narcotised rats with opened thorax and artificial respiration; type: in vivo; settings: 30 mg/kg i.d.
Text: |Cardiovascular effects of example 3 after i.d. administration to |narcotised rats (Pentobarbital) with opened thorax and artificial |respiration.

## CC(C)NCC(O)CON=C1CO[C@H]2[C@@H]1OC[C@H]2O[N+](=O)[O-] (stereo partly drawn) [Example 1, 4-(2-Hydroxy-3-isopropylamino-propyl)-oximino-2,6-dioxabicyclo[3.3.0]octan-8-endo-ol-nitrate]
Isolated aorta strips [1]; Oryctolagus cuniculus
  IC50: 5.9 µM
Isoprenaline tachycardia; iv
  ED50: 11 mg/kg
Isoprenaline tachycardia; i.d.
  ED50: 82.6 mg/kg
[2]
  ED50: 53.8 mg/kg
  Length of action at ED50-Dose: 240 min
[3]
  ED (30 mmHg): 24.2 mg/kg
[4]
  NOAEL: 500 mg/kg
Isolated aorta strips [5]
  IC50: 24 µM
[6]; 10.0 mg/kg perorally, 0.5 h
  HR changes: -15 ± 3 Schl/M
  SAP changes: -36 ± 2 mmHg
[6]; 10.0 mg/kg perorally, 0.5 h, 0 h value 88 ± 3
  HR (heart rate): 73 ± 3 Schl/M
[6]; 10.0 mg/kg perorally, 0.5 h, 0 h value 134 ± 3
  SAP (systolic arterial pressure): 98 ± 3 mmHg
[6]; 10.0 mg/kg perorally, 1 h
  HR changes: -16 ± 4 Schl/M
  SAP changes: -32 ± 2 mmHg
[6]; 10.0 mg/kg perorally, 1 h, 0 h value 88 ± 3
  HR (heart rate): 72 ± 5 Schl/M
[6]; 10.0 mg/kg perorally, 1 h, 0 h value 134 ± 3
  SAP (systolic arterial pressure): 102 ± 4 mmHg
[6]; 10.0 mg/kg perorally, 2 h
  HR changes: -14 ± 2 Schl/M
  SAP changes: -20 ± 1 mmHg
[6]; 10.0 mg/kg perorally, 2 h, 0 h value 88 ± 3
  HR (heart rate): 74 ± 6 Schl/M
[6]; 10.0 mg/kg perorally, 2 h, 0 h value 134 ± 3
  SAP (systolic arterial pressure): 114 ± 3 mmHg
[6]; 10.0 mg/kg perorally, 3 h
  HR changes: -10 ± 3 Schl/M
  SAP changes: -16 ± 2 mmHg
[6]; 10.0 mg/kg perorally, 3 h, 0 h value 88 ± 3
  HR (heart rate): 78 ± 4 Schl/M
[6]; 10.0 mg/kg perorally, 3 h, 0 h value 134 ± 3
  SAP (systolic arterial pressure): 118 ± 3 mmHg
[6]; 10.0 mg/kg perorally, 4 h
  HR changes: -9 ± 2 Schl/M
  SAP changes: -19 ± 3 mmHg
[6]; 10.0 mg/kg perorally, 4 h, 0 h value 88 ± 3
  HR (heart rate): 79 ± 5 Schl/M
[6]; 10.0 mg/kg perorally, 4 h, 0 h value 134 ± 3
  SAP (systolic arterial pressure): 115 ± 3 mmHg

## CC(C)(C)NCC(O)CON=C1CO[C@H]2[C@@H]1OC[C@H]2O[N+](=O)[O-] (stereo partly drawn) [Example 3, 4-(3-tert.-Butylamino-2-hydroxy-propyl)-oximino-2,6-dioxabicyclo[3.3.0]octan-8-endo-ol-nitrate]
Isoprenaline tachycardia; iv
  ED50: 4.6 mg/kg
Isoprenaline tachycardia; i.d.
  ED50: 74.6 mg/kg
[2]
  ED50: 50.8 mg/kg
  Length of action at ED50-Dose: 240 min
[7]
  BAF, changes: -34 ± 5 mL/min
  BAF, length of action: 109 min
  BAF, maximum efficacy: 1.3 ± 0.3 min
  CO, changes: -0.09 ± 0.02 L/min
  CO, length of action: 113 ± 21 min
  CO, maximum efficacy: 5 ± 2 min
  HR changes: -13 ± 10 beats/min
  HR, length of action: > 114 min
  HR, maximum efficacy: 7 ± 3 min
  LV dp/dt, changes: -811 ± 116 mmHg/s
  LV dp/dt, length of action: 107 ± 12 min
  LV dp/dt, maximum efficacy: 6.8 ± 5 min
  LVEDP, changes: 0.7 ± 0.7 mmHg
  LVEDP, length of action: 51 ± 28 min
  LVEDP, maximum efficacy: 9.3 ± 8 min
  LVP, changes: -38 ± 2 mmHg
  LVP, length of action: 103 ± 28 min
  LVP, maximum efficacy: 1.7 ± 0.4 min
  MAP, changes: -36 ± 20 mmHg
  MAP, length of action: 111 ± 15 min
  MAP, maximum efficacy: 1.2 ± 0.0 min
  PAP, changes: -5 ± 2 mmHg
  PAP, length of action: 50 ± 18 min
  PAP, maximum efficacy: 3.0 ± 0.1 min
  SV, changes: +0.3 ± 0.5 ml/min
  SV, length of action: 31 ± 24 min
  SV, maximum efficacy: 2 ± 1 min
  TPVR, changes: -43 ± 4 mmHg/ml
  TPVR, length of action: 13 ± 8 min
  TPVR, maximum efficacy: 1.0 ± 1.0 min
[7]; previous value 0.83 ± 0.04
  CO (cardiac minute volume), efficacy of the substance: 0.74 ± 0.08 L/min
[7]; previous value 3.8 ± 1.0
  LVEDP (left ventricular end diastolic pressure), efficacy of the substance: 3.1 ± 1.0 mmHg
[7]; previous value 6.0 ± 0.4
  SV (cardiac output), efficacy of the substance: 6.3 ± 0.6 mL/min
[7]; previous value 22 ± 3
  PAP (blood pressure in the A. pulmonalis), efficacy of the substance: 17 ± 2 mmHg
[7]; previous value 73 ± 16
  BAF (blood flow in the A femoralis), efficacy of the substance: 40 ± 11 mL/min
[7]; previous value 117 ± 5
  MAP (mean arterial blood pressure), efficacy of the substance: 81 ± 5 mmHg
[7]; previous value 130 ± 12
  LVP (left ventricular blood pressure), efficacy of the substance: 92 ± 12 mmHg
[7]; previous value 140 ± 8
  HR (cardiac frequency), efficacy of the substance: 127 ± 4 beats/min
[7]; previous value 142 ± 9
  TPVR (total peripheral vascular resistence), efficacy of the substance: 99 ± 6 mmHg/ml
[7]; previous value 2558 ± 141
  LV dp/dt (maximum left ventricular pressure increase rate), efficacy of the substance: 1747 ± 84 mmHg/s
[8]
  BAF, changes: -23 ± 5 mL/min
  BAF, length of action: > 167 min
  BAF, maximum efficacy: 42 ± 8 min
  CO, changes: -0.09 ± 0.02 L/min
  CO, length of action: > 167 min
  CO, maximum efficacy: 62 ± 8 min
  HR changes: -23 ± 4 beats/min
  HR, length of action: > 167 min
  HR, maximum efficacy: 78 ± 44 min
  LV dp/dt, changes: -879 ± 90 mmHg/s
  LV dp/dt, length of action: > 132 min
  LV dp/dt, maximum efficacy: 76 ± 10 min
  LVEDP, changes: -2.3 ± 0.9 mmHg
  LVEDP, length of action: 77 ± 8 min
  LVEDP, maximum efficacy: 38 ± 27 min
  LVP, changes: -38 ± 11 mmHg
  LVP, length of action: > 153 min
  LVP, maximum efficacy: 65 ± 17 min
  MAP, changes: -25 ± 4 mmHg
  MAP, length of action: > 167 min
  MAP, maximum efficacy: 58 ± 12 min
  PAP, changes: -4.3 ± 5 mmHg
  PAP, length of action: 111 ± 16 min
  PAP, maximum efficacy: 33 ± 11 min
  SV, changes: +0.5 ± 0.07 ml/min
  SV, length of action: > 167 min
  SV, maximum efficacy: 33 ± 3 min
  TPVR, changes: -23 ± 3 mmHg/ml
  TPVR, length of action: > 136 min
  TPVR, maximum efficacy: 39 ± 5 min
[8]; previous value 0.75 ± 0.03
  CO (cardiac minute volume), efficacy of the substance: 0.66 ± 0.05 L/min
[8]; previous value 3.8 ± 1
  LVEDP (left ventricular end diastolic pressure), efficacy of the substance: 1.5 ± 2 mmHg
[8]; previous value 5.3 ± 0.4
  SV (cardiac output), efficacy of the substance: 5.8 ± 0.3 mL/min
[8]; previous value 22.8 ± 6
  PAP (blood pressure in the A. pulmonalis), efficacy of the substance: 18.5 ± 7 mmHg
[8]; previous value 70 ± 4
  BAF (blood flow in the A femoralis), efficacy of the substance: 47 ± 23 mL/min
[8]; previous value 116 ± 7
  MAP (mean arterial blood pressure), efficacy of the substance: 91 ± 12 mmHg
[8]; previous value 133 ± 9
  LVP (left ventricular blood pressure), efficacy of the substance: 95 ± 10 mmHg
[8]; previous value 142 ± 5
  HR (cardiac frequency), efficacy of the substance: 119 ± 7 beats/min
[8]; previous value 155 ± 8
  TPVR (total peripheral vascular resistence), efficacy of the substance: 132 ± 10 mmHg/ml
[8]; previous value 2345 ± 100
  LV dp/dt (maximum left ventricular pressure increase rate), efficacy of the substance: 1466 ± 189 mmHg/s
[3]
  ED (30 mmHg): 22.8 mg/kg
[4]
  NOAEL: 500 mg/kg
[6]; 5.0 mg/kg perorally, 0.5 h
  HR changes: -13 ± 2 Schl/M
  SAP changes: -28 ± 6 mmHg
[6]; 5.0 mg/kg perorally, 0.5 h, 0 h value 95 ± 8
  HR (heart rate): 82 ± 7 Schl/M
[6]; 5.0 mg/kg perorally, 0.5 h, 0 h value 137 ± 7
  SAP (systolic arterial pressure): 109 ± 4 mmHg
[6]; 5.0 mg/kg perorally, 1 h
  HR changes: -20 ± 5 Schl/M
  SAP changes: -31 ± 5 mmHg
[6]; 5.0 mg/kg perorally, 1 h, 0 h value 95 ± 8
  HR (heart rate): 75 ± 5 Schl/M
[6]; 5.0 mg/kg perorally, 1 h, 0 h value 137 ± 7
  SAP (systolic arterial pressure): 106 ± 2 mmHg
[6]; 5.0 mg/kg perorally, 2 h
  HR changes: -24 ± 6 Schl/M
  SAP changes: -21 ± 2 mmHg
[6]; 5.0 mg/kg perorally, 2 h, 0 h value 95 ± 8
  HR (heart rate): 70 ± 6 Schl/M
[6]; 5.0 mg/kg perorally, 2 h, 0 h value 137 ± 7
  SAP (systolic arterial pressure): 116 ± 5 mmHg
[6]; 5.0 mg/kg perorally, 3 h
  HR changes: -19 ± 5 Schl/M
  SAP changes: -15 ± 4 mmHg
[6]; 5.0 mg/kg perorally, 3 h, 0 h value 95 ± 8
  HR (heart rate): 76 ± 4 Schl/M
[6]; 5.0 mg/kg perorally, 3 h, 0 h value 137 ± 7
  SAP (systolic arterial pressure): 122 ± 4 mmHg
[6]; 5.0 mg/kg perorally, 4 h
  HR changes: -14 ± 4 Schl/M
  SAP changes: -9 ± 3 mmHg
[6]; 5.0 mg/kg perorally, 4 h, 0 h value 95 ± 8
  HR (heart rate): 81 ± 4 Schl/M
[6]; 5.0 mg/kg perorally, 4 h, 0 h value 137 ± 7
  SAP (systolic arterial pressure): 128 ± 7 mmHg

## CC(C)NCC(O)CON=C1COC2C(O[N+](=O)[O-])COC12 (stereo not drawn) [Example 2, 4-(2-Hydroxy-3-isopropylamino-propyl)-oximino-2,6-dioxabicyclo[3.3.0]octan-8-exo-ol-nitrate]
Isolated aorta strips [1]
  IC50: 4000 µM
Isolated aorta strips [5]
  IC50: 472 µM
